Measured values reported in the supplement of paper PMC11451515.

Tested on: P12-Ichikawa
Test: cell viability relative to DMSO control; higher = less cytotoxic
Details: 48 h
Method in brief: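 Library compounds in DMSO were pin-dosed into 1536-well plates (5 μl) holding NOMO1 or SEM (500 cells/well) or P12-Ichikawa (1000 cells/well) leukemia cells, across an 11-point threefold series of 47 μM to 0.79 nM. Each cell line had been adapted for at least four passages in each medium. CellTiter-Glo One luminescence was read after 48 h at 37°C. Viability is the per-plate percentage relative to DMSO wells, with cell-free wells as background.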

[1] = HPLM + 10% dialyzed FBS, 0.000781 µM
[2] = HPLM + 10% dialyzed FBS, 0.00234 µM
[3] = HPLM + 10% dialyzed FBS, 0.00702 µM
[4] = HPLM + 10% dialyzed FBS, 0.0211 µM
[5] = HPLM + 10% dialyzed FBS, 0.0632 µM
[6] = HPLM + 10% dialyzed FBS, 0.19 µM
[7] = HPLM + 10% dialyzed FBS, 0.569 µM
[8] = HPLM + 10% dialyzed FBS, 1.71 µM
[9] = HPLM + 10% dialyzed FBS, 5.12 µM
[10] = HPLM + 10% dialyzed FBS, 15.4 µM
[11] = HPLM + 10% dialyzed FBS, 46.1 µM
[12] = RPMI 5 mM glucose + 10% FBS, 0.000781 µM
[13] = RPMI 5 mM glucose + 10% FBS, 0.00234 µM
[14] = RPMI 5 mM glucose + 10% FBS, 0.00702 µM
[15] = RPMI 5 mM glucose + 10% FBS, 0.0211 µM
[16] = RPMI 5 mM glucose + 10% FBS, 0.0632 µM
[17] = RPMI 5 mM glucose + 10% FBS, 0.19 µM
[18] = RPMI 5 mM glucose + 10% FBS, 0.569 µM
[19] = RPMI 5 mM glucose + 10% FBS, 1.71 µM
[20] = RPMI 5 mM glucose + 10% FBS, 5.12 µM
[21] = RPMI 5 mM glucose + 10% FBS, 15.4 µM
[22] = RPMI 5 mM glucose + 10% FBS, 46.1 µM
[23] = RPMI 5 mM glucose + 10% dialyzed FBS, 0.000781 µM
[24] = RPMI 5 mM glucose + 10% dialyzed FBS, 0.00234 µM
[25] = RPMI 5 mM glucose + 10% dialyzed FBS, 0.00702 µM
[26] = RPMI 5 mM glucose + 10% dialyzed FBS, 0.0211 µM
[27] = RPMI 5 mM glucose + 10% dialyzed FBS, 0.0632 µM
[28] = RPMI 5 mM glucose + 10% dialyzed FBS, 0.19 µM
[29] = RPMI 5 mM glucose + 10% dialyzed FBS, 0.569 µM
[30] = RPMI 5 mM glucose + 10% dialyzed FBS, 1.71 µM
[31] = RPMI 5 mM glucose + 10% dialyzed FBS, 5.12 µM
[32] = RPMI 5 mM glucose + 10% dialyzed FBS, 15.4 µM
[33] = RPMI 5 mM glucose + 10% dialyzed FBS, 46.1 µM

Molecule `O=C1CCC[C@@H]2[C@H]3CCCN4CCC[C@@H](CN12)[C@@H]34` has a cell viability [1] of 78.4%, a cell viability [2] of 85.5% and a cell viability [3] of 83.3%. The cell viability [4] was 87.4%, the cell viability [5] was 96.1% and the cell viability [6] was 92.1%. The cell viability [7] was 83.1%, the cell viability [8] was 88.2% and the cell viability [9] was 92.5%. It also gave a cell viability [10] of 98.1%, a cell viability [11] of 93.4% and a cell viability [12] of 83.7%. For the same molecule, the cell viability [13] was 83.6%, the cell viability [14] was 77.8% and the cell viability [15] was 87.6%. For the same molecule, the cell viability [16] was 88.9%, the cell viability [17] was 85.7% and the cell viability [18] was 76.3%. The cell viability [19] was 86%, the cell viability [20] was 79.3% and the cell viability [21] was 87.6%. The cell viability [22] was 75.7%, the cell viability [23] was 74.9% and the cell viability [24] was 79%. The cell viability [25] was 79.7%, the cell viability [26] was 81.8% and the cell viability [27] was 86.8%. For the same molecule, the cell viability [28] was 83.7%, the cell viability [29] was 80.1% and the cell viability [30] was 86.2%. For the same molecule, the cell viability [31] was 76.9%, the cell viability [32] was 84.7% and the cell viability [33] was 80.9%.
In the case of `[O-]C(=O)C/1=N/C(=O)NC(=O)N1`, the cell viability [1] is reported as 99%, the cell viability [2] is reported as 97% and the cell viability [3] is reported as 98.3%. The cell viability [4] was 93.3%, the cell viability [5] was 102% and the cell viability [6] was 98%. It also gave a cell viability [7] of 90.1%, a cell viability [8] of 91.2% and a cell viability [9] of 81.8%. For the same molecule, the cell viability [10] was 80.9%, the cell viability [11] was 83.4% and the cell viability [12] was 92.2%. For the same molecule, the cell viability [13] was 97.2%, the cell viability [14] was 90% and the cell viability [15] was 96.6%. It also gave a cell viability [16] of 90.2%, a cell viability [17] of 92.3% and a cell viability [18] of 87.6%. The cell viability [19] was 91.8%, the cell viability [20] was 82.6% and the cell viability [21] was 82.1%. For the same molecule, the cell viability [22] was 80.2%, the cell viability [23] was 90.6% and the cell viability [24] was 89.4%. The cell viability [25] was 88.4%, the cell viability [26] was 95.8% and the cell viability [27] was 92.8%. For the same molecule, the cell viability [28] was 81.8%, the cell viability [29] was 85.3% and the cell viability [30] was 93.2%. It also gave a cell viability [31] of 88%, a cell viability [32] of 82.4% and a cell viability [33] of 76.5%.
`Clc1cccc(-n2nnnc2NCc2ccccc2Oc2ccccn2)c1Cl` gave a cell viability [1] of 120%, a cell viability [2] of 120% and a cell viability [3] of 116%. The cell viability [4] was 124%, the cell viability [5] was 123% and the cell viability [6] was 136%. It also gave a cell viability [7] of 133%, a cell viability [8] of 133% and a cell viability [9] of 133%. The cell viability [10] was 131% and the cell viability [11] was 127%.
With `COc1ccc(C(CN(C)C)C2(O)CCCCC2)cc1` (stereo not given) the cell viability [1] was 111%, the cell viability [2] was 106% and the cell viability [3] was 108%. It also gave a cell viability [4] of 107%, a cell viability [5] of 115% and a cell viability [6] of 114%. It also gave a cell viability [7] of 95.3%, a cell viability [8] of 96.5% and a cell viability [9] of 106%. It also gave a cell viability [10] of 98.2%, a cell viability [11] of 108% and a cell viability [12] of 116%. It also gave a cell viability [13] of 115%, a cell viability [14] of 134% and a cell viability [15] of 151%. It also gave a cell viability [16] of 120%, a cell viability [17] of 91.1% and a cell viability [18] of 81.8%. For the same molecule, the cell viability [19] was 97%, the cell viability [20] was 106% and the cell viability [21] was 85.7%. It also gave a cell viability [22] of 109%, a cell viability [23] of 98.4% and a cell viability [24] of 111%. It also gave a cell viability [25] of 109%, a cell viability [26] of 103% and a cell viability [27] of 120%. The cell viability [28] was 106%, the cell viability [29] was 105% and the cell viability [30] was 106%. The cell viability [31] was 101%, the cell viability [32] was 91.5% and the cell viability [33] was 97.1%.
Work on `COc1ccc(OC)c(-c2nnc3ccc(-c4ccc(OC)c(O[C@@H]5CCOC5)c4)nn23)c1` yielded a cell viability [1] of 119%, a cell viability [2] of 118% and a cell viability [3] of 118%. For the same molecule, the cell viability [4] was 126%, the cell viability [5] was 136% and the cell viability [6] was 117%. It also gave a cell viability [7] of 126%, a cell viability [8] of 132% and a cell viability [9] of 128%. For the same molecule, the cell viability [10] was 124% and the cell viability [11] was 105%.
`CCC[S+](=O)([O-])Nc1ccc(F)c(C(=O)c2c[nH]c3ncc(Cl)cc23)c1F` was tested, and the cell viability [1] was 110%, the cell viability [2] was 116% and the cell viability [3] was 109%. It also gave a cell viability [4] of 119%, a cell viability [5] of 112% and a cell viability [6] of 110%. For the same molecule, the cell viability [7] was 99.8%, the cell viability [8] was 108% and the cell viability [9] was 103%. It also gave a cell viability [10] of 65.7%, a cell viability [11] of 44.2% and a cell viability [12] of 115%. It also gave a cell viability [13] of 115%, a cell viability [14] of 121% and a cell viability [15] of 116%. It also gave a cell viability [16] of 114%, a cell viability [17] of 115% and a cell viability [18] of 123%. It also gave a cell viability [19] of 113%, a cell viability [20] of 113% and a cell viability [21] of 85.6%. The cell viability [22] was 54.7%, the cell viability [23] was 118% and the cell viability [24] was 118%. For the same molecule, the cell viability [25] was 119%, the cell viability [26] was 118% and the cell viability [27] was 120%. The cell viability [28] was 115%, the cell viability [29] was 111% and the cell viability [30] was 110%. For the same molecule, the cell viability [31] was 99.8%, the cell viability [32] was 72.3% and the cell viability [33] was 44.2%.
In the case of `CCCC(C)(COC(N)=O)COC(=O)NC(C)C` (stereo not given), the cell viability [1] is reported as 115%, the cell viability [2] is reported as 117% and the cell viability [3] is reported as 114%. The cell viability [4] was 130%, the cell viability [5] was 127% and the cell viability [6] was 123%. The cell viability [7] was 121%, the cell viability [8] was 119% and the cell viability [9] was 129%. The cell viability [10] was 135% and the cell viability [11] was 119%.
`CCN(CCO)CCCOc1ccc2c(Nc3cc(CC(=O)Nc4cccc(F)c4)[nH]n3)ncnc2c1` was tested, and the cell viability [1] was 99.6%, the cell viability [2] was 99.8% and the cell viability [3] was 107%. It also gave a cell viability [4] of 109%, a cell viability [5] of 104% and a cell viability [6] of 43.9%. For the same molecule, the cell viability [7] was 11.6%, the cell viability [8] was 10.8% and the cell viability [9] was 9.25%. For the same molecule, the cell viability [10] was 9.18%, the cell viability [11] was 10.6% and the cell viability [12] was 102%. The cell viability [13] was 110%, the cell viability [14] was 115% and the cell viability [15] was 117%. The cell viability [16] was 108%, the cell viability [17] was 45.4% and the cell viability [18] was 16.7%. It also gave a cell viability [19] of 14.1%, a cell viability [20] of 11% and a cell viability [21] of 10.5%. It also gave a cell viability [22] of 16.3%, a cell viability [23] of 102% and a cell viability [24] of 112%. For the same molecule, the cell viability [25] was 111%, the cell viability [26] was 111% and the cell viability [27] was 114%. The cell viability [28] was 68.6%, the cell viability [29] was 20.7% and the cell viability [30] was 21%. It also gave a cell viability [31] of 21.1%, a cell viability [32] of 18.5% and a cell viability [33] of 26.9%.
Work on `Cc1ccccc1C(OCCN(C)C)c1ccccc1` (stereo not given) yielded a cell viability [1] of 106%, a cell viability [2] of 118% and a cell viability [3] of 117%. For the same molecule, the cell viability [4] was 110%, the cell viability [5] was 113% and the cell viability [6] was 118%. The cell viability [7] was 107%, the cell viability [8] was 129% and the cell viability [9] was 127%. It also gave a cell viability [10] of 123%, a cell viability [11] of 123% and a cell viability [23] of 114%. For the same molecule, the cell viability [24] was 126%, the cell viability [25] was 118% and the cell viability [26] was 123%. It also gave a cell viability [27] of 121%, a cell viability [28] of 113% and a cell viability [29] of 124%. It also gave a cell viability [30] of 131%, a cell viability [31] of 124% and a cell viability [32] of 128%. For the same molecule, the cell viability [33] was 116%.
